Source: BigSolDB 2.1

O=C(O)c1ccc(O)c(O)c1
solubility (mole fraction)
Conditions	293.15 K	298.15 K	303.15 K	308.15 K	313.15 K	318.15 K
in ethanol	0.0302	0.041	0.0495	0.0665	0.0847	0.108
in ethyl acetate	0.00478	0.00671	0.00906	0.013	0.0179	0.0233
in methanol	0.0337	0.0451	0.0654	0.093	0.126	0.167
in methyl acetate	0.00563	0.00843	0.0115	0.0167	0.0225	0.03
